Measured values published in patent US8084431B2, “Method for inhibiting activation of macrophages, inhibiting formation of osteoclasts, inhibiting function of osteoclasts, and/or activating osteoblasts” (China Medical University, priority 2008, dated 2011).

How the values were obtained:
[1] = test system: ovariectomized ICR mice; test: Osteoporosis of ovariectomized ICR mice; format: in vivo; conditions: for bone volume/tissue volume / the number of trabecula: femur, micro computed tomography; for bone volume/tissue volume / the number of trabecula / CTx / osteocalcin: 3 weeks; for CTx / osteocalcin: serum
Procedure: First, the ovaries of ICR mice were removed. After 3 days, the ICR mice were administrated with various dosages (0, 100, and 300 mg/kg) of kinsenoside, respectively. Herein, the unit “mg/kg” means that the dosage (mg) required for each kilogram of the body weight of an animal. After 3 weeks, the ICR mice were sacrificed. ELISA was used to determine the content of osteocalcin and C-terminal cross-lined telopeptides of type I collagen (CTx) in serum. The reagents for determining osteocalcin and CTx were purchased from IDS Nordic A/S, Herlev, Danmarkids. The femurs of the sacrificed ICR mice were taken, and were photographed by a micro computed tomography (SkyScan 1076, Kontizh, Belgium). The computerized axial tomography is shown in FIG. 10, and the ratio of bone volume to tissue volume and the number of trabecula were analyzed with analysis software. Then, the femurs were decalcified and were frozen sectioned. Osteoclasts in the femurs were stained with a TRAP stain reagent.

[2] = test system: ICR mice administrated with lipopolysaccharides; test: LPS-induced inflammatory cytokines in the blood of ICR mice (ELISA); format: in vivo; conditions: LPS 40 mg/kg, 1 hour
Procedure: ICR mice were intraperitoneally administrated with various dosages (100 mg/kg or 300 mg/kg) of kinsenoside. 30 minutes later, the ICR mice were intraperitoneally administrated with 40 mg/kg of lipopolysaccharides. 1 hour later, the blood of the ICR mice was collected from the retro-orbital sinus, and the concentrations of TNF-α and IL-1β were determined with an ELISA (enzyme linked immunosorbent assay) reagent (eBioscience, Boston, Mass.).

[3] = test system: macrophages RAW 264.7; test: NO release of LPS-induced macrophages RAW 264.7 (Griess reagent); format: cell-based; conditions: 24 hours
Procedure: 24 hours later, the supernatant was collected, and the content of nitric oxide was determined with a Griess reagent (Sigma). After macrophages RAW 264.7 were scratched off the culture plates, proteins were extracted, and then the expression of nitric oxide synthase (iNOs), p65, and p50 (nuclear factor kappa B or NF-κB, transcription factor) was analyzed with the western blot method.

[4] = test system: MC3T3-E1 cells; test: Mineralization of MC3T3-E1 cells (Alizarin red-S); format: cell-based; conditions: 14 days
Procedure: 50 μg/ml of Vitamin C and 10 μM of β-glycerophosphatase were added into culture plates containing MC3T3-E1 cells, and the MC3T3-E1 cells were incubated for 14 days. After 14 days, the mineralization of the MC3T3-E1 cells occurred, and led to the deposition of calcium. Alizarin red-S (Sigma) was used to measure the content of calcium (see Gregory C A, Gunn W G, Peister A, Prockop D J. 2004. An Alizarin red-based assay of mineralization by adherent cells in culture: comparison with cetylpyridinium chloride extract. Anal. Biochem. 329, 77-84).
50 μg/ml of Vitamin C and 10 μM of 0-glycerophosphatase were added into culture plates containing MC3T3-E1 cells, and various concentrations (0, 100, and 1,000 nM) of kinsenoside were added into the culture plates, respectively. The MC3T3-E1 cells were incubated for 14 days, and Alizarin red-S was used to measure the content of calcium.

[5] = test system: MC3T3-E1 cells; test: Survival rate of osteoblast precursor cells MC3T3-E1 (MTS); format: cell-based; conditions: 3 days; for survival rate Experimental Group VI: with Vitamin C and β-glycerophosphatase; for survival rate Experimental Group V: without differentiation inducers
Procedure: MC3T3-E1 cells (American Type Culture Collection, Manassas, Va., USA) are the precursor cells of osteoblasts. A suitable differentiation inducer can be added into culture plates containing MC3T3-E1 cells to observe the later stage of the differentiation process of osteoblasts.
Besides various concentrations of kinsenoside as the above experiment, […] MC3T3-E1 cells, and the MC3T3-E1 cells were incubated for 3 days.

[6] = test system: NF-κB; test: EMSA of NF-κB entering nuclei in RANKL-activated macrophages RAW 264.7; format: cell-based; conditions: kinsenoside 10, 25, 50 μM, RANKL 50 ng/ml, 60 minutes, FIG. 7B and 7C
Description: EMSA (Electrophoresis Mobility Shift Assay) was used to observe the mechanism of the inhibition effect of kinsenoside on the formation of osteoclasts. It is known that RANKL may activate macrophages RAW 264.7 to make NF-κB enter nuclei to stimulate macrophages RAW 264.7 to differentiate into osteoclasts (see Wada T, Nakashima T, Hiroshi N, Penninger J M. 2006. RANKL-RANK signaling in osteoclastogenesis and bone disease. Trends Mol. Med. 12, 17-25).
The DNA sequences used in the EMSA assay are as follows:
The macrophages RAW 264.7 were incubated for 60 minutes, and then proteins in the nuclei were extracted to be analyzed with EMSA. Herein, the DNA sequences used in the EMSA assay are the same as the above experiment.

[7] = test system: MC3T3-E1 cells; test: Alkaline phosphatase activity of MC3T3-E1 cells; format: cell-based
Procedure: ALP (alkaline phosphatase) is a molecular indicator or molecular marker for the early stage of the activation of the precursor cells of osteoblasts, and according to the activity of ALP, the activation situation of the precursor cells of osteoblasts can observed. […] The MC3T3-E1 cells were incubated for 3, 5, and 10 days respectively, and then proteins in the cells were extracted. A p-nitrophenyl phosphate liquid substrate system reagent (Sigma) was used to determine the activity of ALP, and the result is shown in Table 13.

[8] = test system: ICR mice administrated with lipopolysaccharides; test: Septic shock death of ICR mice induced by high dosage of lipopolysaccharides; format: in vivo; conditions: kinsenoside 100 or 300 mg/kg intraperitoneal, LPS 80 mg/kg, FIG. 4
Procedure: ICR mice were intraperitoneally administrated with various dosages (100 mg/kg or 300 mg/kg) of kinsenoside. 30 minutes later, the ICR mice were intraperitoneally administrated with 80 mg/kg of lipopolysaccharides, and the death rate of the ICR mice within 72 hours was observed.

[9] = kinsenoside 100 mg/kg intraperitoneal
[10] = kinsenoside 300 mg/kg intraperitoneal

O=C1C[C@@H](OC2OC(CO)C(O)C(O)C2O)CO1 (stereo partly drawn) [kinsenoside, 3-(R)-3-β-D-glucopyranosyloxy-butanolide]
bone tissues of the femurs in micro computed tomography ([1]; compared to ICR mice that are not ovariectomized, FIG. 10): return to a normal state
bone volume/tissue volume ([1]; kinsenoside 100 mg/kg): 19.9 ± 1.5 %
the number of trabecula ([1]; kinsenoside 100 mg/kg): 12.2 ± 1.5 cm⁻¹
bone volume/tissue volume ([1]; kinsenoside 300 mg/kg): 21.2 ± 2.2 %
the number of trabecula ([1]; kinsenoside 300 mg/kg): 12.8 ± 1.5 cm⁻¹
CTx ([1]; kinsenoside 100 mg/kg): 29.7 ± 6.9 ng/mL
osteocalcin ([1]; kinsenoside 100 mg/kg): 191.2 ± 33.5 ng/mL
CTx ([1]; kinsenoside 300 mg/kg): 27.5 ± 3.1 ng/mL
osteocalcin ([1]; kinsenoside 300 mg/kg): 351.8 ± 80.5 ng/mL
IL-1β [2, 9]: 371.1 ± 127.8 ng/mL
TNF-α [2, 9]: 680.5 ± 160.2 ng/mL
IL-1β [2, 10]: 272.6 ± 102.6 ng/mL
TNF-α [2, 10]: 513.4 ± 155.0 ng/mL
the concentration of NO ([3]; kinsenoside 10 μM): 15.5 ± 3.7 µM
the concentration of NO ([3]; kinsenoside 50 μM): 12.0 ± 3.1 µM
the concentration of NO ([3]; kinsenoside 100 μM): 8.4 ± 1.7 µM
Alizarin red-S ([4]; 10 nM): 137 ± 29%
Alizarin red-S ([4]; 100 nM): 137 ± 27%
Alizarin red-S ([4]; 1000 nM): 174 ± 42 %
survival rate Experimental Group VI ([5]; 10 nM): 98.7 ± 7.8%
survival rate Experimental Group V ([5]; 10 nM): 91.5 ± 3.0 %
survival rate Experimental Group VI ([5]; 100 nM): 95.3 ± 3.3%
survival rate Experimental Group V ([5]; 100 nM): 90.8 ± 2.9 %
survival rate Experimental Group VI ([5]; 1000 nM): 95.0 ± 4.5%
survival rate Experimental Group V ([5]; 1000 nM): 89.5 ± 6.0 %
amount of NF-κB that enters into the nuclei [6]: reduces the amount of NF-κB that enters into the nuclei
ALP activity ([7]; 10 nM, 3 days): 112 ± 11%
ALP activity ([7]; 10 nM, 5 days): 120 ± 18%
ALP activity ([7]; 10 nM, 10 days): 125 ± 6%
ALP activity ([7]; 100 nM, 3 days): 124 ± 17%
ALP activity ([7]; 100 nM, 5 days): 126 ± 17%
ALP activity ([7]; 100 nM, 10 days): 137 ± 16%
ALP activity ([7]; 1000 nM, 3 days): 130 ± 21%
ALP activity ([7]; 1000 nM, 5 days): 132 ± 16 %
ALP activity ([7]; 1000 nM, 10 days): 150 ± 23 %
death rate of the ICR mice within 72 hours [8]: inhibits the death rate
